Experimental data published in US20240279220A1, “INDOLE COMPOUNDS AND METHODS OF USE” (Genzyme Corporation, priority 2021, published 2024).

Legend:
NBD1/3D = test: Aggregation analysis using differential static light scattering (DSLS), NBD1 thermal stability; format: binding, Human; conditions: ΔTagg versus DMSO control; compound at 100 μM
How it was run: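 Purified NBD1 at 0.2 mg/ml in S200 buffer (pH 7.6, 2 mM ATP, 5 mM MgCl2, 1% glycerol) was heated with compound at 1 °C/min to 70 °C. Tagg taken from the light-scattering curve inflection point; ΔTagg = compound Tagg minus mean DMSO control Tagg.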

CFTR = target: T1, CFTR (Homo sapiens, UniProt P13569, DEL508-508); test: TECC24 recording of CFTR-mediated transepithelial chloride transport in ΔF508 homozygous CF-HBE cells; format: cell-based; conditions: 10 μM test agent, 48 hours incubation, AUC of forskolin-stimulated IEQ divided by vehicle AUC, primary CF-HBE cells
T1 construct: Primary human bronchial epithelial cells from a ΔF508 homozygous CF donor; host or cells: primary human bronchial epithelial cells (CF-HBE), ΔF508 homozygous donor
Experimental: The effects of a test agent on CFTR-mediated transepithelial chloride transport was measured using TECC24 recording analysis. Test agents were solubilized in DMSO. Solubilized test agents were mixed with incubation medium containing DMEM/F12, Ultroser G (2%; Crescent Chemical, catalog #67042), Hyclone Fetal Clone II (2%; GE Healthcare, catalog #SH30066.02), bovine brain extract (0.25%; Lonza, catalog #CC-4098), insulin (2.5 μg/mL), IL-13 (10 ng/mL), hydrocortisone (20 nM), transferrin (2.5 μg/mL), triiodothyronine (500 nM), ethanolamine (250 nM), epinephrine (1.5 μM), phosphoethanolamine (250 nM), and retinoic acid (10 nM). Primary human bronchial epithelial cells from a ΔF508 homozygous CF donor (CF-HBE cells; from University of North Carolina Cystic Fibrosis Tissue Procurement Center), grown on Transwell HTS 24-well cell culture inserts (Costar, catalog #3378), were exposed to test agents or controls dissolved in incubation medium. The CF-HBE cells were cultured at 36.5° C. for 48 hours before TECC24 recordings were performed in the presence or absence of test agent, a positive control or vehicle (DMSO).
Following incubation, the transwell cell culture inserts containing the test agent or control-treated CF-HBE cells were loaded onto a TECC24 apparatus (TECC v7 or MTECC v2; EP Design) to record the transepithelial voltage (VT) and resistance (TEER) using 4 AgCl electrodes per well configured in current-clamp mode. The apical and basolateral bath solutions both contained (in mM) 140 NaCl, 5 KCl, 2 CaCl2, 1 MgCl2, 10 Hepes, and 10 glucose (adjusted to pH 7.4 with NaOH). To inhibit basal Na+ absorption, the ENaC inhibitor benzamil (10 μM) was added to the bath. Then, the adenylate cyclase activator, forskolin (10 μM), was added to the bath to activate CFTR. The forskolin-stimulated Cl— transport was halted by addition of CFTR inhibitor-172 (20 μM) to the bath at the end of the experiment to confirm specificity. VT and TEER recordings were digitally acquired at routine intervals using TECC or MTECC software (EP Design). VT and TEER were transformed into equivalent transpeithelial Cl— current (IEQ), and the Area Under the Curve (AUC) of the IEQ timecourse between forskolin and CFTR inhibitor-172 addition is generated using Excel (Microsoft). Efficacy is expressed as the ratio of the test agent AUC divided by vehicle AUC. EC50s based on AUC are generated using the non-linear regression log(agonist) vs. response function in Prism software (Graphpad) with HillSlope fixed=1.
If a test agent increased the AUC of the forskolin-stimulated IEQ relative to vehicle in CF-HBE cells, and this increase was inhibited by CFTR inhibitor-172, then the test agent was considered a CFTR corrector.

T1 sequence (P13569 with tags, fused parts or gaps DEL508-508): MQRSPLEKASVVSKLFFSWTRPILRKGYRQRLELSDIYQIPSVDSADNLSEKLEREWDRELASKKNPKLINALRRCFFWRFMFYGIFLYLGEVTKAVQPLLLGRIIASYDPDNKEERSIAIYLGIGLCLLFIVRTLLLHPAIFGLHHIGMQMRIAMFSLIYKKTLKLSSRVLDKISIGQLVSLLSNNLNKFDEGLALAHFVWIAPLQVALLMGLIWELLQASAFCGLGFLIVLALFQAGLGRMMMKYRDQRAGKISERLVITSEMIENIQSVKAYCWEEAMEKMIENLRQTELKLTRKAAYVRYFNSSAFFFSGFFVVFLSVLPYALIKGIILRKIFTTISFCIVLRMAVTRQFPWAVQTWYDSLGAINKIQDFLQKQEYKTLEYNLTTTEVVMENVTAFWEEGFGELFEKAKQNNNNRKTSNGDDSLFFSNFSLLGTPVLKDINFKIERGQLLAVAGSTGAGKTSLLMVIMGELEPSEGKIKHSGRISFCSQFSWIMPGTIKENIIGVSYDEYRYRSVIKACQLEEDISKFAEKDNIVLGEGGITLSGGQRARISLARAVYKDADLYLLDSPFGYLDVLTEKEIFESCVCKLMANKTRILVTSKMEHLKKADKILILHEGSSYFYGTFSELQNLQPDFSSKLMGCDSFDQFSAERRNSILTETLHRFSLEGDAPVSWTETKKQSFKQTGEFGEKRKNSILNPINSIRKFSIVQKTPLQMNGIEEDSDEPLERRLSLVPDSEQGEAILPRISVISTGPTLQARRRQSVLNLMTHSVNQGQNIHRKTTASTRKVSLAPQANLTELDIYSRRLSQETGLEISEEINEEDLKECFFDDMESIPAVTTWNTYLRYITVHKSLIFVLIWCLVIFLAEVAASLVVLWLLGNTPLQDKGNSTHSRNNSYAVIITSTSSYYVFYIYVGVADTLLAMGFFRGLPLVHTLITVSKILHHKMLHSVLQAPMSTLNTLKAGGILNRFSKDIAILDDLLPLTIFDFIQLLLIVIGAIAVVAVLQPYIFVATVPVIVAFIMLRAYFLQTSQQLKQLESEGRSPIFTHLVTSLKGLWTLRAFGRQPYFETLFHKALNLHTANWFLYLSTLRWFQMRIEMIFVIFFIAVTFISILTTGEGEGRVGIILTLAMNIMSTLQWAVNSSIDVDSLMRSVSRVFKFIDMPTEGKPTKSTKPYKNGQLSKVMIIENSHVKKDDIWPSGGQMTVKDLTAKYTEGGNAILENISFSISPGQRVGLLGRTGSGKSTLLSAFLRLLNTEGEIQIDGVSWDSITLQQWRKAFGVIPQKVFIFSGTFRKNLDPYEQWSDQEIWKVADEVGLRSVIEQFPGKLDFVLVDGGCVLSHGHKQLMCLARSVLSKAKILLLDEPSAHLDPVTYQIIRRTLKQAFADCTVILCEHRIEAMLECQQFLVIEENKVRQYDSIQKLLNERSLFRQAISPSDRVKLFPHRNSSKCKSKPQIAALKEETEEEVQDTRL

Row | SMILES | TECC24 @ 10 μM over DMSO (AUC fold over DMSO) (CFTR) | DSLS NBD1/3D Human Stability delta-T (° C.) @ 100 (μM) (NBD1/3D)
1 | CC(C#N)(c1cccc(CCC(=O)O)c1)c1c[nH]c(-c2cc(Oc3c(F)cc4[nH]ccc4c3CC(F)(F)F)ccc2F)n1 (stereo not drawn) [Example 52, 3-(3-(1-cyano-1-(2-(2-fluoro-5-((6-fluoro-4-(2,2,2-trifluoroethyl)-1H-indol-5-yl)oxy)phenyl)-1H-imidazol-4-yl)ethyl)phenyl)propanoic acid] | B (“B” refers to AUC @10 uM between 4-12) | B (B: 5-10° C.)
2 | O=C(O)CCc1cccc(Cc2cnc(-c3cc(Oc4c(F)cc5[nH]ccc5c4CC4CCCS4(=O)=O)ccc3F)[nH]2)c1F (stereo not drawn) [Example 125, 3-(3-((2-(5-((4-((1,1-dioxidotetrahydrothiophen-2-yl)methyl)-6-fluoro-1H-indol-5-yl)oxy)-2-fluorophenyl)-1H-imidazol-5-yl)methyl)-2-fluorophenyl)propanoic acid] | A (“A” refers to AUC @10 uM >= 12) | A (A: T ≥ 10° C.)
3 | CC(O)(c1cccc(CCC(=O)O)c1)c1cnc(-c2cc(Oc3c(F)c(F)c4[nH]ccc4c3C3CC3)ccc2F)[nH]1 (stereo not drawn) [Example 205, 3-(3-(1-(2-(5-((4-cyclopropyl-6,7-difluoro-1H-indol-5-yl)oxy)-2-fluorophenyl)-1H-imidazol-5-yl)-1-hydroxyethyl)phenyl) propanoic acid] | B (“B” refers to AUC @10 uM between 4-12) | B (B: 5-10° C.)
4 | CC(c1ccn(-c2cccc(Oc3c(F)cc4[nH]ccc4c3S(C)(=O)=O)c2)n1)c1cccc(CCC(=O)O)c1F (single isomer, unassigned) [Example 23B, 3-(2-fluoro-3-(1-(1-(3-((6-fluoro-4-(methylsulfonyl)-1H-indol-5-yl)oxy)phenyl)-1H-pyrazol-3-yl)ethyl)phenyl)propanoic acid] | A (“A” refers to AUC @10 uM >= 12) | A (A: T ≥ 10° C.)
5 | CS(=O)(=O)c1c(Oc2ccc(F)c(-c3ncc(C4(c5cccc(CCC(=O)O)c5)CCOC4)[nH]3)c2)c(F)cc2[nH]ccc12 (stereo not drawn) [Example 45, 3-(3-(3-(2-(2-Fluoro-5-((6-fluoro-4-(methylsulfonyl)-1H-indol-5-yl)oxy)phenyl)-1H-imidazol-5-yl)tetrahydrofuran-3-yl)phenyl)propanoic acid] | B (“B” refers to AUC @10 uM between 4-12) | A (A: T ≥ 10° C.)
6 | Cc1c(Oc2ccc(F)c(-c3ncc(C(C)(O)c4cccc(CCC(=O)O)n4)[nH]3)c2)c(F)cc2[nH]ccc12 (stereo not drawn) [Example 272, 3-(6-(1-(2-(2-fluoro-5-((6-fluoro-4-methyl-1H-indol-5-yl)oxy)phenyl)-1H-imidazol-5-yl)-1-hydroxyethyl)pyridin-2-yl)propanoic acid] | B (“B” refers to AUC @10 uM between 4-12) | B (B: 5-10° C.)
7 | Cc1c(Oc2ccc(F)c(-c3ncc(Cc4cccc(CCC(=O)O)c4F)[nH]3)c2)c(F)cc2[nH]ccc12 [Example 119, 3-(2-fluoro-3-((2-(2-fluoro-5-((6-fluoro-4-methyl-1H-indol-5-yl)oxy)phenyl)-1H-imidazol-5-yl)methyl)phenyl)propanoic acid] | C (“C” refers to AUC @ 10 uM <= 4) | B (B: 5-10° C.)
8 | O=C(O)CCc1cccc(Cc2cnc(-c3cc(Oc4c(F)c(F)c5[nH]ccc5c4F)ccc3F)[nH]2)c1F [Example 121, 3-(2-fluoro-3-((2-(2-fluoro-5-((4,6,7-trifluoro-1H-indol-5-yl)oxy)phenyl)-1H-imidazol-5-yl)methyl)phenyl)propanoic acid] | A (“A” refers to AUC @10 uM >= 12) | B (B: 5-10° C.)
9 | O=C(O)CCc1cccc(C2(c3cnc(-c4cc(Oc5c(F)cc6[nH]ccc6c5F)ccc4F)[nH]3)CCN(CC(F)(F)F)CC2)c1 [Example 169, 3-(3-(4-(2-(5-((4,6-difluoro-1H-indol-5-yl)oxy)-2-fluorophenyl)-1H-imidazol-5-yl)-1-(2,2,2-trifluoroethyl)piperidin-4-yl)phenyl)propanoic acid] | C (“C” refers to AUC @ 10 uM <= 4) | B (B: 5-10° C.)

Continued, in another order:

Row | TECC24 @ 10 μM over DMSO (AUC fold over DMSO) (CFTR) | SMILES | DSLS NBD1/3D Human Stability delta-T (° C.) @ 100 (μM) (NBD1/3D)
10 | C (“C” refers to AUC @ 10 uM <= 4) | O=C(O)CCc1cccc(C2(c3cnc(-c4cc(Oc5c(F)c(F)c6[nH]ccc6c5F)ccc4F)[nH]3)CCOCC2)c1 [Example 167, 3-(3-(4-(2-(2-fluoro-5-((4,6,7-trifluoro-1H-indol-5-yl)oxy)phenyl)-1H-imidazol-4-yl)tetrahydro-2H-pyran-4-yl)phenyl)propanoic acid] | A (A: T ≥ 10° C.)
11 | A (“A” refers to AUC @10 uM >= 12) | CC(C)(O)c1nc(-c2cc(Oc3c(F)cc4[nH]ccc4c3F)ccc2F)[nH]c1Cc1cccc(CCC(=O)O)c1F [Example 280, 3-(3-((2-(5-((4,6-Difluoro-1H-indol-5-yl)oxy)-2-fluorophenyl)-4-(2-hydroxypropan-2-yl)-1H-imidazol-5-yl)methyl)-2-fluorophenyl)propanoic acid] | B (B: 5-10° C.)
12 | C (“C” refers to AUC @ 10 uM <= 4) | CC(c1cnc(-c2cc(Oc3c(F)cc4[nH]ccc4c3CCP(C)(C)=O)ccc2F)[nH]1)c1cccc(CCC(=O)O)c1F (single isomer, unassigned) [Example 135A, 3-(3-(1-(2-(5-((4-(2-(dimethylphosphoryl)ethyl)-6-fluoro-1H-indol-5-yl)oxy)-2-fluorophenyl)-1H-imidazol-5-yl)ethyl)-2-fluorophenyl)propanoic acid] | A (A: T ≥ 10° C.)
13 | C (“C” refers to AUC @ 10 uM <= 4) | Cc1c(Oc2ccc(F)c(-c3ncc([C@]4(c5cccc(CCC(=O)O)c5)C[C@H](O)CO4)[nH]3)c2)c(F)cc2[nH]ccc12 (racemic) [Example 274, rac-3-(3-((2r,4s)-2-(2-(2-Fluoro-5-((6-fluoro-4-methyl-1H-indol-5-yl)oxy)phenyl)-1H-imidazol-5-yl)-4-hydroxytetrahydrofuran-2-yl)phenyl)propanoic acid] | A (A: T ≥ 10° C.)
14 | C (“C” refers to AUC @ 10 uM <= 4) | CNC(c1cccc(CCC(=O)O)c1)c1cnc(-c2cccc(Oc3c(F)cc4[nH]ccc4c3F)c2)[nH]1 (stereo not drawn) [Example 266, 3-(3-((2-(3-((4,6-Difluoro-1H-indol-5-yl)oxy)phenyl)-1H-imidazol-5-yl)(methylamino)methyl)phenyl)propanoic acid] | A (A: T ≥ 10° C.)
15 | A (“A” refers to AUC @10 uM >= 12) | CC(c1c[nH]c(-c2cc(Oc3c(F)cc4[nH]ccc4c3CC(F)F)ccc2F)n1)c1cccc(CCC(=O)O)c1F (single isomer, unassigned) [Example 129A, 3-(3-(1-(2-(5-((4-(2,2-difluoroethyl)-6-fluoro-1H-indol-5-yl)oxy)-2-fluorophenyl)-1H-imidazol-4-yl)ethyl)-2-fluorophenyl)propanoic acid] | A (A: T ≥ 10° C.)
